Measurements published in patent US20240383913A1, “THIOPHENE RING COMPOUND, PREPARATION METHOD THEREFOR AND APPLICATION THEREOF” (CENTER FOR EXCELLENCE IN MOLECULAR CELL SCIENCE, CHINESE …, priority 2021, published 2024).

Columns and labels:
[1] = tested on: hyperlocomotion of the mice induced by MK801; assay: Open field test, hyperlocomotion induced by MK801; type: in vivo, C57B6 male mice; settings: for Distance travelled (cm): 5-minute bin
Method: Experimental method: The experimental animals were C57B6 male mice, n=8 in each group. This model used C57B6 mice as experimental animals. Hyperlocomotion of the mice in open field was induced by acute injection of a NMDA antagonist MK801. and modeled to test the inhibitory effect of different compounds on hyperkinesia phenotype induced by MK801. All mouse behavior experiments were carried out during the light period, and the whole process was recorded by the camera and locomotive data were tracked and analyzed by behavioral tracking software. The compounds were administered intraperitoneally. Immediately after the injection, the mice entered the open field and their movement trajectories were recorded by the camera. After 30 minutes, the mice received 0.2 mg/kg of MK801 by intraperitoneal injection and returned to the open field immediately after administration and the movement trajectories were further recorded for 120 minutes. The accumulative travelled distance of the mice was counted in a 5-minute bin. Data statistics were performed using Student-t-test analysis, *p<0.05, ** p<0.01, *** p<0.001, **** p<0.0001.

dopamine D2 receptors = dopamine D2 receptors (Homo sapiens (Human), UniProt P14416); assay: Dopamine D2 receptor Gαi1 BRET (G protein trimer dissociation); type: cell-based; settings: D2 receptor, G protein pathway;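 note: transfected cells co-expressing D2 receptor, Gαi1-Rluc, Gβ3 and Gγ9-GFP, BRET with coelenterazine 400a at 5 µM read as G protein trimer dissociation, graded drug concentrations in duplicate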
Method: To examine the downstream G protein signaling pathway mediated by dopamine D2 receptors, on the first day, a 6 cm culture dish was used for transfection with 1 μg of dopamine D2 receptors, 1 μg of Gαi1 containing a C-terminal seaweed luciferase (Gαi1-Rluc), 1 μg of Gβ3, 1 μg of Gγ9 containing C-terminal green fluorescent protein (Gγ9-GFP), and 16 μL of PEI. At the same time, in order to examine the downstream β-arrestin2 signaling pathway mediated by dopamine D2 receptors, on the first day, a 6 cm culture dish was used for transfection with 500 μg of dopamine D2 receptors containing C-terminal seaweed luciferase (D2-Rluc), 500 μg of G protein-coupled receptor kinase 2 (GRK2), 2500 μg of β-arrestin2 containing N-terminal green fluorescent protein (GFP2-ARRB2) mixed with 14 μL of PEI. The next day, the confluent cells of a 6 cm culture dish were digested and reseeded into a 96-well plate with 100 μL of culture medium added to each well. On the third day, the drugs were added for test. The 96-well plate was taken out from the cell incubator to decant the culture medium, 40 μL of the substrate coelenterazine 400a (final concentration of 5 μM) was added to each well, and then 20 μL of different drugs were added sequentially from left to right to ensure that the final concentration of the drug decreased gradually from bottom to top, with two replicates per treatment. Finally, the prepared samples were loaded on machine for test. The machine readout value reflected the recruitment of β-arrestin2 to the membrane or the dissociation of G protein trimer. The former indicated the degree of activation of the β-arrestin2 signaling pathway downstream of the dopamine D2 receptors, and the latter indicated the degree of activation of the G protein signaling pathway downstream of the dopamine D2 receptors.

5-HT2A receptor = 5-HT2A receptor (Homo sapiens (Human), UniProt P28223); assay: Affinity for 5-HT2A receptors, radioligand competition with [3H]-ketanserin; type: binding; settings: 293T membrane transiently expressing 5-HT2A
Method: The affinity of the compounds of the present disclosure for the 5-HT2A receptors was determined by the method of radioligand competition experiment. In the first step, a cell membrane component containing specific 5-HT2A receptor was prepared. A 10 cm dish was used for transfection with 10 ng of the 5-HT2A receptor and 40 μL of PEI. After 48 hours, the 10 cm dish was taken out from the cell incubator and the cultured cells had expressed the 5-HT2A receptor. A vacuum pump was used to suck off the culture medium, 3 mL of lysis buffer was added to each culture dish, and the cells were placed in a 4° C. cold room for 10 minutes. After the cells were detached, the cells were transferred to a 15 mL centrifuge tube and centrifuged at 1500 rpm for 5 minutes at 4° C., and the supernatant was discarded. The cell pellet was transferred to a tissue homogenizer, and 3 mL of lysis buffer was added and fully ground until the cells were broken. Then, cell suspension was equally aliquoted into several EP tubes, centrifuged at 12000 rpm for 5 minutes at 4° C., and the supernatant was discarded. The precipitate was the cell membrane component containing the 5-HT2A receptor. […] First, a standard binding buffer was added to the cell membrane component containing the 5-HT2A receptor, and the cell membrane was disrupted and resuspended with an electric tissue homogenizer. 30 μL of membrane protein suspension was added to each well of a 96-well plate. Then, 30 μL of different drugs were added to the 96-well plate sequentially from bottom to top to ensure that the final drug concentrations were 10^−5 M, 10^−6 M, 10^−7 M, 10^−8 M, 10^−9 M, and 0 M, with two replicates per treatment. Next, 30 μL of [3H]-ketanserin was added to each well of the 96-well plate. The plate was incubated for 2 hours at room temperature in the dark. Detection was conducted. The machine readout value reflected the amount of [3H]-ketanserin bound on the membrane, and after further data processing, the affinity Ki values of different compounds for the 5-HT2A receptor were obtained.

5-HT1A receptor = 5-HT1A receptor (Homo sapiens (Human), UniProt P08908); assay: Affinity for 5-HT1A receptors, radioligand competition with [3H]-LSD; type: binding; settings: 293T membrane transiently expressing 5-HT1A; [3H]-LSD; read-out: 5-HT1A affinity Ki;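 note: membranes from cells transiently transfected with 5-HT1A receptor, bound [3H]-LSD displaced by compound at 10^-9 to 10^-5 M, 2 h incubation at room temperature in the dark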
Sequence of 5-HT1A receptor (P08908 whole entry): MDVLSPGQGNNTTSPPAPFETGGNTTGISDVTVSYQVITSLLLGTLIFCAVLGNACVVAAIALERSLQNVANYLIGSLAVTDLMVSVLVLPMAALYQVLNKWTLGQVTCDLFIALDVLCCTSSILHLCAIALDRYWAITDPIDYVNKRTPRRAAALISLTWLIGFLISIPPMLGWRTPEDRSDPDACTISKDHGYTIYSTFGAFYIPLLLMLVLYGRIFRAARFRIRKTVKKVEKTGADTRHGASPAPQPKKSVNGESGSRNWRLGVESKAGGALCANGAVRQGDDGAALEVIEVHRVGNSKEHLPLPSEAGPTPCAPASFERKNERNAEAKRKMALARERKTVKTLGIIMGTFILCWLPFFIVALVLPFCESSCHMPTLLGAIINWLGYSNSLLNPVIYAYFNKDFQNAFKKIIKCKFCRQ
Method: The affinity of the compounds of the present disclosure for the 5-HTIA receptors was determined by the method of radioligand competition experiment. In the first step, a cell membrane component containing specific 5-HTIA receptor was prepared. A 10 cm culture dish was used for transfection with 10 ng of the 5-HTIA receptor and 40 μL of PEI. After 48 hours, the 10 cm culture dish was taken out from the cell incubator and the cultured cells had expressed the 5-HTIA receptor. A vacuum pump was used to suck off the culture medium, 3 mL of lysis buffer was added to each culture dish, and the cells were placed in a 4° C. cold room for 10 minutes. After the cells were detached, the cells were transferred to a 15 mL centrifuge tube and centrifuged at 1500 rpm for 5 minutes at 4° C., and the supernatant was discarded. The cell pellet was transferred to a tissue homogenizer, and 3 mL of lysis buffer was added and fully ground until the cells were broken. Then, cell suspension was equally aliquoted into several EP tubes, centrifuged at 12000 rpm for 5 minutes at 4° C., and the supernatant was discarded. The precipitate was the cell membrane component containing the 5-HT1A receptor. […] First, a standard binding buffer was added to the cell membrane component containing the 5-HT1A receptor, and the cell membrane was disrupted and resuspended with an electric tissue homogenizer. 30 μL of membrane protein suspension was added to each well of a 96-well plate. Then, 30 μL of different drugs were added to the 96-well plate sequentially from bottom to top to ensure that the final drug concentrations were 10^−5 M, 10^−6 M, 10^−7 M, 10^−8 M, 10^−9 M, and 0 M, with two replicates per treatment. Next, 30 μL of [3H]-LSD was added to each well of the 96-well plate. The plate was incubated for 2 hours at room temperature in the dark. Detection was conducted. The machine readout value reflected the amount of [3H]-LSD bound on the membrane, and after further data processing, the affinity Ki values of different compounds for the 5-HTIA receptor were obtained. To examine the downstream G protein signaling pathway mediated by 5-HTIA receptors, on the first day, a 6 cm culture dish was used for transfection with 1 μg of 5-HTIA receptors, 1 μg of Gαi1 containing C-terminal seaweed luciferase (Gαi1-Rluc), 1 μg of Gβ3, 1 μg of Gγ9 containing C-terminal green fluorescent protein (Gγ9-GFP), and 16 μL of PEI. The next day, the confluent cells of a 6 cm culture dish were digested and reseeded into a 96-well plate with 100 μL of culture medium was added to each well. On the third day, the drugs were added for test. The 96-well plate was taken out from the cell incubator to decant the culture medium, 40 μL of the substrate coelenterazine 400a (final concentration of 5 μM) was added to each well, and then 20 μL of different drugs were added sequentially from left to right to ensure that the final concentration of the drug decreased gradually from bottom to top, with two replicates per treatment. Finally, the prepared samples were loaded on machine for test. The machine readout value reflected the dissociation of G protein trimer, and thereby indicated the degree of activation of the G protein signaling pathway downstream of the 5-HTIA receptors.

Sequence of dopamine D2 receptors (P14416 whole entry): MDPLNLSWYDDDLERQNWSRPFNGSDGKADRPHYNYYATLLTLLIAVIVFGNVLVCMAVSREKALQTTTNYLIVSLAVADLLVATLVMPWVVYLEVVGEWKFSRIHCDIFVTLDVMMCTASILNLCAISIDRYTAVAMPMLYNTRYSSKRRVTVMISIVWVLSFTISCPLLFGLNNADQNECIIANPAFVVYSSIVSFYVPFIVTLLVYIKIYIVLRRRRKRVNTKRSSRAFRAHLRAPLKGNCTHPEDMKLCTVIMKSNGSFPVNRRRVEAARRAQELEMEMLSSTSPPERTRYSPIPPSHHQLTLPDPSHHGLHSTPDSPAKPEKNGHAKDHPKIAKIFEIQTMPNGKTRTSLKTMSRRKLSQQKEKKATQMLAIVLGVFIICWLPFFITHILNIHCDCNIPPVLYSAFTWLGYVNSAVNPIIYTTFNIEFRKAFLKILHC
Sequence of 5-HT2A receptor (P28223 whole entry): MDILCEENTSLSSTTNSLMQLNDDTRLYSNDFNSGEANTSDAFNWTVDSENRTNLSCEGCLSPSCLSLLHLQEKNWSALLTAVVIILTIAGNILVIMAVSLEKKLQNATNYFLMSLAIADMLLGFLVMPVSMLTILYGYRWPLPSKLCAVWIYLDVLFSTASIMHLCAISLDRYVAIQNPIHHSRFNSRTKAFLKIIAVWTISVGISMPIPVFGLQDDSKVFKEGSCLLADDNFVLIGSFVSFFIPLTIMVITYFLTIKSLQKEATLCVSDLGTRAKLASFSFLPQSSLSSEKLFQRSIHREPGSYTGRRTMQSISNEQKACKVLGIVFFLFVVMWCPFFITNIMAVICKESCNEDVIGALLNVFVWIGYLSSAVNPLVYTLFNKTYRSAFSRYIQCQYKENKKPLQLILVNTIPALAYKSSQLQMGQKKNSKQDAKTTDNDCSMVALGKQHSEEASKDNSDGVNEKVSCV

CN(C)C(=O)N[C@H]1CC[C@H](CCN2CCN3c4cccc5scc(c45)CC3C2)CC1 (single isomer, unassigned; (-)) [(−)-I-27]
Distance travelled (cm) ([1]; (−)-I-27 0.2 mg/kg i.p. + MK801 0.2 mg/kg, 80 minutes after MK801): 501.93 ± 119.91 cm | Distance travelled (cm) ([1]; (−)-I-27 0.2 mg/kg i.p. + MK801 0.2 mg/kg, 85 minutes after MK801): 471.35 ± 107.44 cm | Distance travelled (cm) ([1]; (−)-I-27 0.2 mg/kg i.p. + MK801 0.2 mg/kg, 90 minutes after MK801): 399.78 ± 105.26 cm | Distance travelled (cm) ([1]; (−)-I-27 0.2 mg/kg i.p. + MK801 0.2 mg/kg, 95 minutes after MK801): 301.32 ± 70.58 cm | Distance travelled (cm) ([1]; (−)-I-27 0.2 mg/kg i.p. + MK801 0.2 mg/kg, 100 minutes after MK801): 268.55 ± 74.28 cm | Distance travelled (cm) ([1]; (−)-I-27 0.2 mg/kg i.p. + MK801 0.2 mg/kg, 105 minutes after MK801): 299.24 ± 98.85 cm | Distance travelled (cm) ([1]; (−)-I-27 0.2 mg/kg i.p. + MK801 0.2 mg/kg, 110 minutes after MK801): 378.85 ± 88.69 cm | Distance travelled (cm) ([1]; (−)-I-27 0.2 mg/kg i.p. + MK801 0.2 mg/kg, 115 minutes after MK801): 236.86 ± 61.21 cm | Distance travelled (cm) ([1]; (−)-I-27 0.2 mg/kg i.p. + MK801 0.2 mg/kg, 120 minutes after MK801): 183.04 ± 51.72 cm | Distance travelled (cm) ([1]; (−)-I-27 0.2 mg/kg i.p., 0 minutes, before MK801): 426.03 ± 34.51 cm | Distance travelled (cm) ([1]; (−)-I-27 0.2 mg/kg i.p., −5 minutes, before MK801): 420.23 ± 44.8 cm | Distance travelled (cm) ([1]; (−)-I-27 0.2 mg/kg i.p., −10 minutes, before MK801): 462.71 ± 40.83 cm | Distance travelled (cm) ([1]; (−)-I-27 0.2 mg/kg i.p., −15 minutes, before MK801): 534.93 ± 50.26 cm | Distance travelled (cm) ([1]; (−)-I-27 0.2 mg/kg i.p., −20 minutes, before MK801): 614.02 ± 31.52 cm | Distance travelled (cm) ([1]; (−)-I-27 0.2 mg/kg i.p., −25 minutes, before MK801): 741.08 ± 56.17 cm | Distance (cm) travelled in 45 minutes ([1]; (−)-I-27 0.4 mg/kg i.p. + MK801 0.2 mg/kg, 0-45 minute interval after MK-801): 4056.3 cm | Distance travelled (cm) ([1]; (−)-I-27 0.4 mg/kg i.p. + MK801 0.2 mg/kg, 5 minutes after MK801): 479.22 ± 57.64 cm | Distance travelled (cm) ([1]; (−)-I-27 0.4 mg/kg i.p. + MK801 0.2 mg/kg, 10 minutes after MK801): 277.07 ± 32.68 cm | Distance travelled (cm) ([1]; (−)-I-27 0.4 mg/kg i.p. + MK801 0.2 mg/kg, 15 minutes after MK801): 316.03 ± 70.39 cm | Distance travelled (cm) ([1]; (−)-I-27 0.4 mg/kg i.p. + MK801 0.2 mg/kg, 20 minutes after MK801): 370.1 ± 75.27 cm | Distance travelled (cm) ([1]; (−)-I-27 0.4 mg/kg i.p. + MK801 0.2 mg/kg, 25 minutes after MK801): 403.74 ± 108.16 cm | Distance travelled (cm) ([1]; (−)-I-27 0.4 mg/kg i.p. + MK801 0.2 mg/kg, 30 minutes after MK801): 584.67 ± 129.63 cm | Distance travelled (cm) ([1]; (−)-I-27 0.4 mg/kg i.p. + MK801 0.2 mg/kg, 35 minutes after MK801): 633.6 ± 143.49 cm | Distance travelled (cm) ([1]; (−)-I-27 0.4 mg/kg i.p. + MK801 0.2 mg/kg, 40 minutes after MK801): 483.45 ± 104.6 cm | Distance travelled (cm) ([1]; (−)-I-27 0.4 mg/kg i.p. + MK801 0.2 mg/kg, 45 minutes after MK801): 508.42 ± 110.56 cm | Distance travelled (cm) ([1]; (−)-I-27 0.4 mg/kg i.p. + MK801 0.2 mg/kg, 50 minutes after MK801): 541.28 ± 85 cm | Distance travelled (cm) ([1]; (−)-I-27 0.4 mg/kg i.p. + MK801 0.2 mg/kg, 55 minutes after MK801): 483.29 ± 71.91 cm | Distance travelled (cm) ([1]; (−)-I-27 0.4 mg/kg i.p. + MK801 0.2 mg/kg, 60 minutes after MK801): 421.36 ± 61.47 cm | Distance travelled (cm) ([1]; (−)-I-27 0.4 mg/kg i.p. + MK801 0.2 mg/kg, 65 minutes after MK801): 371.77 ± 42.78 cm | Distance travelled (cm) ([1]; (−)-I-27 0.4 mg/kg i.p. + MK801 0.2 mg/kg, 70 minutes after MK801): 347.51 ± 55.13 cm | Distance travelled (cm) ([1]; (−)-I-27 0.4 mg/kg i.p. + MK801 0.2 mg/kg, 75 minutes after MK801): 296.62 ± 78.74 cm | Distance travelled (cm) ([1]; (−)-I-27 0.4 mg/kg i.p. + MK801 0.2 mg/kg, 80 minutes after MK801): 244.49 ± 76.54 cm | Distance travelled (cm) ([1]; (−)-I-27 0.4 mg/kg i.p. + MK801 0.2 mg/kg, 85 minutes after MK801): 160.39 ± 34.08 cm | Distance travelled (cm) ([1]; (−)-I-27 0.4 mg/kg i.p. + MK801 0.2 mg/kg, 90 minutes after MK801): 386.57 ± 158.41 cm | Distance travelled (cm) ([1]; (−)-I-27 0.4 mg/kg i.p. + MK801 0.2 mg/kg, 95 minutes after MK801): 201.39 ± 68.43 cm | Distance travelled (cm) ([1]; (−)-I-27 0.4 mg/kg i.p. + MK801 0.2 mg/kg, 100 minutes after MK801): 234.28 ± 63.3 cm | Distance travelled (cm) ([1]; (−)-I-27 0.4 mg/kg i.p. + MK801 0.2 mg/kg, 105 minutes after MK801): 229.02 ± 63.13 cm | Distance travelled (cm) ([1]; (−)-I-27 0.4 mg/kg i.p. + MK801 0.2 mg/kg, 110 minutes after MK801): 210.95 ± 45.58 cm | Distance travelled (cm) ([1]; (−)-I-27 0.4 mg/kg i.p. + MK801 0.2 mg/kg, 115 minutes after MK801): 323.92 ± 121.74 cm | Distance travelled (cm) ([1]; (−)-I-27 0.4 mg/kg i.p. + MK801 0.2 mg/kg, 120 minutes after MK801): 324.23 ± 68.48 cm | Distance travelled (cm) ([1]; (−)-I-27 0.4 mg/kg i.p., 0 minutes, before MK801): 441.97 ± 55.83 cm | Distance travelled (cm) ([1]; (−)-I-27 0.4 mg/kg i.p., −5 minutes, before MK801): 317.51 ± 24.51 cm | Distance travelled (cm) ([1]; (−)-I-27 0.4 mg/kg i.p., −10 minutes, before MK801): 419.17 ± 56.13 cm | Distance travelled (cm) ([1]; (−)-I-27 0.4 mg/kg i.p., −15 minutes, before MK801): 374.1 ± 25.44 cm | Distance travelled (cm) ([1]; (−)-I-27 0.4 mg/kg i.p., −20 minutes, before MK801): 475.66 ± 9.82 cm | Distance travelled (cm) ([1]; (−)-I-27 0.4 mg/kg i.p., −25 minutes, before MK801): 903.06 ± 46.43 cm | Gαi1 BRET (Emax %) (dopamine D2 receptors): (72.04%) | EC50 (dopamine D2 receptors; read-out: Gαi1 BRET EC50): 3.76 nM | Ki (5-HT2A receptor): 2290 nM | Ki (5-HT1A receptor): 80 nM
